Assay results reported in ChEMBL document CHEMBL2150992, “Synthesis of quinoline derivatives for fluorescent imaging certain bacteria” (Bioorg Med Chem Lett, 2012).
Active and inactive are the calls of the source. No cut-off for these calls is given here.

Assays:
Format in all cases: functional, organism-based
Escherichia coli [1] = experiment: Binding affinity to Escherichia coli at 0.0781 mM after 1 day by fluorescence microscopy
Staphylococcus aureus [2] = experiment: Binding affinity to Staphylococcus aureus at 0.0781 mM after 10 mins by fluorescence microscopy
Bacillus subtilis [3] = experiment: Binding affinity to Bacillus subtilis at 0.0781 mM after 10 mins by fluorescence microscopy
Bacillus subtilis [4] = experiment: Binding affinity to Bacillus subtilis at 0.0781 mM after 1 day by fluorescence microscopy
Escherichia coli [5] = experiment: Binding affinity to Escherichia coli at 0.0781 mM after 10 mins by fluorescence microscopy
Staphylococcus aureus [6] = experiment: Binding affinity to Staphylococcus aureus at 0.0781 mM after 1 day by fluorescence microscopy

Compound	Activity (Escherichia coli [1])	Activity (Staphylococcus aureus [2])	Activity (Bacillus subtilis [3])	Activity (Bacillus subtilis [4])	Activity (Escherichia coli [5])	Activity (Staphylococcus aureus [6])
COc1ccc2nc(-c3cc4ccccc4c4ccccc34)cc(N3CCCC3=O)c2c1	Active	inactive	Active	Active	Active	Active
O=C1CCCN1[C@H]1C[C@@H](c2cc3ccccc3c3ccccc23)Nc2ccccc21 (relative stereo)	–	Active	Active	–	inactive	–
O=C1CCCN1c1cc(-c2cc3ccccc3c3ccccc23)nc2ccccc12	Active	Active	Active	Active	Active	Active
CCCCc1ccc2c(c1)[C@@H](N1CCCC1=O)C[C@@H](c1cc3ccccc3c3ccccc13)N2 (relative stereo)	–	Active	inactive	–	inactive	–
O=C1CCCN1[C@H]1C[C@@H](c2cc3ccccc3c3ccccc23)Nc2ccc(Br)cc21 (relative stereo)	–	inactive	inactive	–	Active	–
O=C1CCCN1c1cc(-c2cc3ccccc3c3ccccc23)nc2ccc(Cl)cc12	Active	Active	Active	Active	Active	Active
COc1ccc2c(c1)[C@@H](N1CCCC1=O)C[C@@H](c1cc3ccccc3c3ccccc13)N2 (relative stereo)	–	Active	Active	–	Active	–
c1ccc2c(c1)N[C@@H](c1cc3ccccc3c3ccccc13)C1CCCOC21 (stereo not given in full)	–	Active	inactive	–	inactive	–
O=C1CCCN1c1cc(-c2cc3ccccc3c3ccccc23)nc2ccc(Br)cc12	Active	Active	Active	Active	inactive	Active
O=C1CCCN1[C@H]1C[C@@H](c2cc3ccccc3c3ccccc23)Nc2ccc(Cl)cc21 (relative stereo)	–	inactive	Active	–	inactive	–
c1ccc2c(c1)N[C@H](c1cc3ccccc3c3ccccc13)C1CCCOC21 (stereo not given in full)	–	Active	inactive	–	inactive	–
N#Cc1ccc2c(c1)[C@@H](N1CCCC1=O)C[C@@H](c1cc3ccccc3c3ccccc13)N2 (mixture of isomers)	–	Active	Active	–	inactive	–
N#Cc1ccc2nc(-c3cc4ccccc4c4ccccc34)cc(N3CCCC3=O)c2c1	Active	Active	Active	Active	Active	Active
CCCCc1ccc2nc(-c3cc4ccccc4c4ccccc34)cc(N3CCCC3=O)c2c1	Active	Active	Active	Active	inactive	Active
